Measurements reported in patent US20230130403A1, “METHODS OF TREATMENT WITH S1P RECEPTOR MODULATORS” (PRIOTHERA SAS, priority 2021, published 2023).

Columns and labels:
[1] = Pharmacokinetics of [14C]KRP203 radioactivity in rats; type: in vivo, rat
Source text: Following intravenous administration of [14C]KRP203, radioactivity was readily distributed to rat and dog tissues with similar volume of distribution (Vss=8.0 L/kg in rat).

[2] = Pharmacokinetics of [14C]KRP203 radioactivity in dogs; type: in vivo, dog; conditions: oral administration
Plasma protein binding = type: in vitro ADME; conditions: human plasma
[3] = Tissue distribution of [14C]KRP203 radioactivity in Wistar rats; type: in vivo, rat
Source text: Highly exposed tissues were liver and to a smaller extent kidney, small intestine, adrenal gland, lungs, spleen and mesenteric lymph nodes.

[4] = test system: peripheral lymphocyte counts; experiment: Recovery of absolute lymphocyte counts after S1P modulator dosing in healthy volunteers; type: in vivo, human; conditions: single 1 mg FTY720, BAF312 multiple doses for 28 days, single 3 mg KRP203
Procedure: Mocravimod is particularly preferred. […] A measurable parameter that determines maintenance of the mode of action, i.e., sequestering of lymphocytes in secondary lymphoid organs and bone marrow, is reduction of peripheral lymphocyte counts. Recovery of absolute lymphocyte counts to 80% of normal counts after a single 1 mg dose of FTY720, multiple dose applications of BAF312 for 28 days, or a single 3 mg dose of KRP203 was reached after 8, 7 and more than 10 days, respectively.

[5] = test system: acute GVHD after allogeneic HSCT; conditions: preclinical; cited from earlier work
S1PR1 versus S1PR3-5 = conditions: cited from earlier work
S1P1 [6] = molecular target: T1, S1P1 (Homo sapiens, UniProt P21453); experiment: S1P receptor agonism on S1P1; type: biochemical
T1 sequence (P21453 whole entry): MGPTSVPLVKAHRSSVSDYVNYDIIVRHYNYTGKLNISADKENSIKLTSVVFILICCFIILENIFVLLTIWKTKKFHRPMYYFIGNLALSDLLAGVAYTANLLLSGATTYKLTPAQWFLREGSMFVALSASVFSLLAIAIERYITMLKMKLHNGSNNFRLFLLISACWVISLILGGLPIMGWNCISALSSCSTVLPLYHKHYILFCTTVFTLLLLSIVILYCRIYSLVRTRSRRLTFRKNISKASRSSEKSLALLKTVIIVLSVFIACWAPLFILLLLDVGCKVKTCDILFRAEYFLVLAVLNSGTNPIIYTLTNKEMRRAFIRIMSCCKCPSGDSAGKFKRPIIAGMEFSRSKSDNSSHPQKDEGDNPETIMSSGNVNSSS
Source text: (§1) KRP203 (mocravimod) is an immunomodulator that selectively targets sphingosine 1-phosphate (S1P) receptors via its phosphorylated active metabolite. […] The therapeutic effects are believed to be due to the prevention of effector lymphocyte recirculation from lymphatic tissue to susceptible target organs such as the gut, skin or CNS.

S1P4 = S1P4 (Homo sapiens, UniProt O95977); experiment: S1P receptor agonism on S1P4; type: biochemical
S1P4, sequence (O95977 whole entry): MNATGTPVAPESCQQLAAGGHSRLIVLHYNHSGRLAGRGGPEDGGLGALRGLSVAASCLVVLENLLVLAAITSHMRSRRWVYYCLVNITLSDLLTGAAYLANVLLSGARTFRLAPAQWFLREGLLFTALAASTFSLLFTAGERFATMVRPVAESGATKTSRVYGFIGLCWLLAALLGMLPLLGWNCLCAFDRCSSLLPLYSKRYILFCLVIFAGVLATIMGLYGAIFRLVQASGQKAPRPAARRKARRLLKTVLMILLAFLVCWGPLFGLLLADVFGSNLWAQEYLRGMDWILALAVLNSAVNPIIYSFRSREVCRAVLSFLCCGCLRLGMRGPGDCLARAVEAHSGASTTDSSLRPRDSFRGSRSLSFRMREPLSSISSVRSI
Source text: as §1

hS1P3 = hS1P3 (Homo sapiens, UniProt Q99500); experiment: S1P receptor agonism on S1P3; type: biochemical
hS1P3, sequence (Q99500 whole entry): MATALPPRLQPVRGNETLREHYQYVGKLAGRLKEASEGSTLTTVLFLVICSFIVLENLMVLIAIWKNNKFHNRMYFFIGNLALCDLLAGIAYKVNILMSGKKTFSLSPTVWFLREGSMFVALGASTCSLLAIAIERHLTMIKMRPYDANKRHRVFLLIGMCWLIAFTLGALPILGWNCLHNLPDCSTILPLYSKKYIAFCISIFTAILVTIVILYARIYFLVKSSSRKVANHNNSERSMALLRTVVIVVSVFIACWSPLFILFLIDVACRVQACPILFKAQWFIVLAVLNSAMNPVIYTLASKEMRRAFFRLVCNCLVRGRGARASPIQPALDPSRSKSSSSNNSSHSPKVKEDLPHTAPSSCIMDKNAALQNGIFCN
Source text: as §1

S1P5 = S1P5 (Homo sapiens, UniProt Q9H228); experiment: S1P receptor agonism on S1P5; type: biochemical
S1P5, sequence (Q9H228 whole entry): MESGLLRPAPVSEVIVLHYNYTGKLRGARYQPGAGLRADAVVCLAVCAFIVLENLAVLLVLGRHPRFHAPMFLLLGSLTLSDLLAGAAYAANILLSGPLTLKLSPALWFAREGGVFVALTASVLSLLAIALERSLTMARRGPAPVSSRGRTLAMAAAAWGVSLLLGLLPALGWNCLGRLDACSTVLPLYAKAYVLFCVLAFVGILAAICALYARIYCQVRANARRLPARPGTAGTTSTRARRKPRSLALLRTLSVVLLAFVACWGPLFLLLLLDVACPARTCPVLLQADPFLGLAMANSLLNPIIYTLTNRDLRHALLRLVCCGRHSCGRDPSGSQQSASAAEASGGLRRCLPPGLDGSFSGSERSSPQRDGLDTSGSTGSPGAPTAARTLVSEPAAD
Source text: as §1

S1P1 [7] = molecular target: T1, S1P1; experiment: S1P1 internalization; type: cell-based
Source text: KRP203 reduces lymphocyte counts in peripheral blood by more than 80%.

[8] = test system: GPCRs, ion channels, transporters, nuclear receptors and enzymes; experiment: Off-target binding assays; conditions: compared to estimated free plasma concentration at 3 mg/day
Source text: Thus it is unlikely that secondary pharmacology effects should arise due to non-specific receptor activation at therapeutic doses.

hERG channels = hERG channels (Homo sapiens, UniProt Q12809); experiment: hERG channel inhibition in vitro; type: biochemical; conditions: up to the highest concentration tested, 3 μM
hERG channels, sequence (Q12809 whole entry): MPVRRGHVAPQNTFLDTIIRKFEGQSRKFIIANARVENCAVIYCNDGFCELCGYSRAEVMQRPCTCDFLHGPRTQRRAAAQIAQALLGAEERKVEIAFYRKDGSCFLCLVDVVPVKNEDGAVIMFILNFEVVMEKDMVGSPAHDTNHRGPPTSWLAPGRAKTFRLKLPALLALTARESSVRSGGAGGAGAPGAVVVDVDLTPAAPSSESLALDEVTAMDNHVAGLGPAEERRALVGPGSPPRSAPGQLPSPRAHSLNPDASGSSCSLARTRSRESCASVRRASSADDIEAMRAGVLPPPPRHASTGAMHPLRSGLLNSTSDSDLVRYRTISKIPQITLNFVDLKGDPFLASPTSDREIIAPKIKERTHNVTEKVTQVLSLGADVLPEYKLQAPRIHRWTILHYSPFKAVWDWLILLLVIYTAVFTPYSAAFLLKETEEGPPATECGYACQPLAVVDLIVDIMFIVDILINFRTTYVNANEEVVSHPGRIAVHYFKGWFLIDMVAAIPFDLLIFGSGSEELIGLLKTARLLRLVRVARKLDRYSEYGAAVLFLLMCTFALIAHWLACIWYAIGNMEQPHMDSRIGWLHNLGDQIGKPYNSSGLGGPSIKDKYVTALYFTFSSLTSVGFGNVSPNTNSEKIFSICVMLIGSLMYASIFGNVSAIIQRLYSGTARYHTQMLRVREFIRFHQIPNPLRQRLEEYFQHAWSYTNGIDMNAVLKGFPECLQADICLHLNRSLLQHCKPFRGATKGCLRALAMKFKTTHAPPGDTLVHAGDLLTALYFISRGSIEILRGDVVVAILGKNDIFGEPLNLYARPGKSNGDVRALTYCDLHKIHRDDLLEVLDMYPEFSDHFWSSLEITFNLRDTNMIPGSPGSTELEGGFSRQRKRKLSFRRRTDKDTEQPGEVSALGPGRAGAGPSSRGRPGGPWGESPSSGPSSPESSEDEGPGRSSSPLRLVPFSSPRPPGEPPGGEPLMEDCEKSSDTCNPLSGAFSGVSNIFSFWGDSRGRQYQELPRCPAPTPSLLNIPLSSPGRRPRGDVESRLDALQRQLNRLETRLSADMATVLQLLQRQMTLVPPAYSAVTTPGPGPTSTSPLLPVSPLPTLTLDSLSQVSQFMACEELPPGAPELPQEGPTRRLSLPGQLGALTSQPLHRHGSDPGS
Source text: (§2) Based on the available in vitro and in vivo data, except for the potential to cause a negative chronotropic effect and some mild increase in blood pressure, there is no indication that KRP203 would cause arrhythmia or QT prolongation in man.

[9] = test system: guinea pig papillary muscle preparation; experiment: APD in guinea pig papillary muscle preparation; conditions: concentrations of 3 μM
Source text: as §2

[10] = In vitro metabolite profile in human hepatocytes; type: in vitro ADME
[11] = In vivo plasma ratio of phosphorylated KRP203 to KRP203 in rat
Procedure: (§3) The in vivo ratio of phosphorylated KRP203 to KRP203 in plasma was up to 45 in rat. As the metabolic activities on KRP203 in human blood and hepatocytes were lower than those of other species, the metabolic clearance of KRP203 in man is expected be lower than that in rat and dog. […] KRP230 formed low amounts of covalent drug-protein adducts in human hepatocytes in vitro. Due to the low levels detected ([…] at 3 hours) in-vitro adduct formation is unlikely to be associated with clinical relevant findings at low dose levels (e.g. below 10 mg).

[12] = test system: human cytochrome P450 isoenzymes; experiment: Inhibition of cytochrome P450 isoenzymes in vitro; type: in vitro ADME
Procedure: as §3
The weak inhibitory effect of ciclosporin on hepatic CYP3A4 is unlikely to relevantly impact the PK of KRP203.

[13] = molecular target: CYP3A4 via the human PXR receptor (Homo sapiens, UniProt O75469); experiment: CYP3A4 induction via PXR; type: in vitro ADME
CYP3A4 via the human PXR receptor, sequence (O75469 whole entry): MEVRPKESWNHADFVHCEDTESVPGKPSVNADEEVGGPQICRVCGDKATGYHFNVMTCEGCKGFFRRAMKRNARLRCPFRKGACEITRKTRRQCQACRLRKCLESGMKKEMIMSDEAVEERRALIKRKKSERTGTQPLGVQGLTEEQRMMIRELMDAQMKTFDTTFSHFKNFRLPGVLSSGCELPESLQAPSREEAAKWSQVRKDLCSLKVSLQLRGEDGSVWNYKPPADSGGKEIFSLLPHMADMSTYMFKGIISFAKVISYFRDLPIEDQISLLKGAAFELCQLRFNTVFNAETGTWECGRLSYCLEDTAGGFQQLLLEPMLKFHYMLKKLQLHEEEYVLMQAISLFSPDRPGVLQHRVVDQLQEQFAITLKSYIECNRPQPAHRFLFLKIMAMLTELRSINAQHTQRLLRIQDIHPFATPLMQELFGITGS

bacterial mutation = experiment: In vitro genotoxicity: bacterial mutation; type: cell-based
chromosome aberration = experiment: In vitro genotoxicity: chromosome aberration; type: cell-based
[14] = Plasma toxicokinetics in dog
[15] = Plasma toxicokinetics in rat

In the case of NC(CO)(CO)CCc1ccc(Sc2cccc(OCc3ccccc3)c2)cc1Cl [[14C]KRP203], the “volume of distribution Vss” value ([1]; intravenous administration, rat) is reported as 8.0 L/kg, the “radioactivity Tmax” value ([1]; oral administration, male rats) is reported as 7 h and the “radioactivity Tmax” value [2] is reported as 9.3 h. The fraction unbound (Plasma protein binding) was < 0.01, the “total radioactivity in brain relative to plasma” value ([3]; 14-day multiple oral dose 0.5 mg/kg/day) was “accumulated more in brain relative to plasma and eliminated much slower” and the “radioactivity in CNS tissues (cerebrum, cerebellum and medulla oblongata) versus plasma” value ([3]; until 24 h post-dose after single administration) was “lower than in plasma”.
For CCCCCCCCc1ccc(CCC(N)(CO)CO)cc1 [FTY720], the “Recovery of absolute lymphocyte counts to 80% of normal counts” value [4] is listed as 8 days, the “effect on acute GVHD” value [5] is listed as “ameliorate acute GVHD” and the S1P receptor selectivity (S1PR1 versus S1PR3-5) is listed as “poor selectivity for S1PR1 versus S1PR3-5”.
For CCc1cc(/C(C)=N/OCc2ccc(C3CCCCC3)c(C(F)(F)F)c2)ccc1CN1CC(C(=O)O)C1 [BAF312], the “Recovery of absolute lymphocyte counts to 80% of normal counts” value [4] was 7 days.
With KRP203-phosphate the agonist activity (S1P1 [6]) was “potent agonist”, the agonist activity (S1P4) was “potent agonist” and the agonist activity (hS1P3) was “potent but partial agonist”. For the same molecule, the agonist activity (S1P5) was “potent but partial agonist”, the “internalization of the S1P1” value (S1P1 [7]) was “long-lasting and complete internalization” and the “safety margins in off-target binding assays” value [8] was “large safety margins”. For the same molecule, the “effects on hERG channels” value (hERG channels) was “did not show significant effects”, the APD prolongation [9] was “No APD prolongation” and the “metabolite abundance in human hepatocytes” value [10] was “among the more prominent metabolites”. The “in vivo ratio of phosphorylated KRP203 to KRP203 in plasma” value [11] was “up to 45”, the “effect on cytochromes P450 enzymes and transporters” value [12] was “lack of effect” and the “no significant induction of CYP3A4 via the human PXR receptor up to concentration” value [13] was ≤ 50 µM. The genotoxic potential (bacterial mutation) was “no evidence for a genotoxic potential”, the genotoxic potential (chromosome aberration) was “no evidence for a genotoxic potential” and the “KRP203-phosphate/KRP203 ratio (based on AUC0-24 h)” value [14] was 1.4-6.6. For the same molecule, the “accumulation after repeated dosing (4 and 13 weeks)” value [14] was “no evidence of accumulation”, the “proportionality between exposure and dose” value ([14]; single and multiple doses (4 and 13 weeks)) was “trend for an under proportionality at all dose levels” and the “KRP203-phosphate/KRP203 ratio (based on AUC0-24 h)” value [15] was 10.9-19.1. For the same molecule, the “proportionality between exposure and dose” value ([15]; single and multiple administrations) was “apparent proportionality between exposure and dose”.
